The source of these data is patent US9416383B2, “Method for enhancing catalytic activity of a lipase” (University of North Carolina at Chapel Hill, priority 2007, dated 2016).

For one series, the target named is T1, human PLCβ3 (hPLCβ3) (Homo sapiens, UniProt Q01970).
T1 construct: confirmed alkylation at up to eight cysteine residues on the full length protein; gift: laboratory of Dr. T. K. Harden, University of North Carolina
T1 sequence (Q01970 1-1234): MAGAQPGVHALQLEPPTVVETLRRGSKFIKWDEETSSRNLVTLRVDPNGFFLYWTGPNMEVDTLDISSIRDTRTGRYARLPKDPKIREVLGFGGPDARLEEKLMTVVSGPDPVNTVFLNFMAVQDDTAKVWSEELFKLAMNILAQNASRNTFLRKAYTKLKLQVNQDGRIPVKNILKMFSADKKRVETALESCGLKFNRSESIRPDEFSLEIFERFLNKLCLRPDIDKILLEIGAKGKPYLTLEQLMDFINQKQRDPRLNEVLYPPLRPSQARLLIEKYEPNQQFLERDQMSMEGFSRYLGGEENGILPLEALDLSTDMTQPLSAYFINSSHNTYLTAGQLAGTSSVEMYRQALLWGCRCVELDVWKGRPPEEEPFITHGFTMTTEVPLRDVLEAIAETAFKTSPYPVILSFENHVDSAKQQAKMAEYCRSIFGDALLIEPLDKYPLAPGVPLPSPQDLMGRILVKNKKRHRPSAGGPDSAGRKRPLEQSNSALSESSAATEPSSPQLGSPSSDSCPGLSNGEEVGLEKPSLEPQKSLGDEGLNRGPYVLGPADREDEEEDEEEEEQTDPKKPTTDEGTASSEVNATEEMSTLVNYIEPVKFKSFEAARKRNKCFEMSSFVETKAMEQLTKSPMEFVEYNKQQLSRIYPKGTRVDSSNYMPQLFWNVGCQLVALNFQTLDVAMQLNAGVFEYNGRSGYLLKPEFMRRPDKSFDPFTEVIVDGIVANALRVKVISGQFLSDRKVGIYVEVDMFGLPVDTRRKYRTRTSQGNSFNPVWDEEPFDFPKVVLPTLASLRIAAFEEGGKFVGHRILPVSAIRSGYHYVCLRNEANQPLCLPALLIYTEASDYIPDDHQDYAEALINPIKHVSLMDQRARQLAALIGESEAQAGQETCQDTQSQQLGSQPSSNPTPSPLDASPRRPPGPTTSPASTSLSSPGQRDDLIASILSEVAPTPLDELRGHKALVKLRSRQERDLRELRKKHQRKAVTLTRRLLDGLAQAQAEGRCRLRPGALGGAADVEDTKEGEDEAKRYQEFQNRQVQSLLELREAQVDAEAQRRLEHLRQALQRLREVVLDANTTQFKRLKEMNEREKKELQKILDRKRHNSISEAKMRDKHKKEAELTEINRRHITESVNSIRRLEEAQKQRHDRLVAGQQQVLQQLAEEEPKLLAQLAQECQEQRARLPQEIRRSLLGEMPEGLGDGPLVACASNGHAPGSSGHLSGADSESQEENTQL
The series is described as follows: PLCβ3 activity by cell free assay ([3H]-inositol phosphate formation from PIP2 in dodecylmaltoside mixed micelles). It counts as biochemical. As to conditions: for effect on activity of hPLCβ3 in DDM mixed micelles: FIG. 2; for effect on U73122-induced activation of hPLCβ3: FIGS. 3 and 6B. The protocol:
Purified human PLCβ3 protein was generously provided by the laboratory of Dr. T. K. Harden (Department of Pharmacology, University of North Carolina, Chapel Hill, N.C., United States of America). […] Briefly, hot and cold phosphatidylinositol-4,5-bisphosphate (PIP2; 5 nmol), as substrate, was reconstituted in a 1 mM dodecylmaltoside solution and mixed with assay buffer containing 40 mM Hepes (pH 7.4), 480 mM KCl, 40 mM NaCl, 8 mM EGTA, 4 mM […], and 7.6 mM CaCl2. Compounds at desired concentrations and purified PLCβ3 in 1% fatty acid-free BSA and 10 mM Hepes (pH 7.0), were subsequently added to the mixture. To initiate assays, samples were moved to a 37° C. water bath and incubated for 2-10 minutes such that less than fifteen percent total substrate was hydrolyzed. At designated times, reactions were stopped by addition of 750 μl CHCl3:MeOH:HCl (40:80:1), 100 μl water, 250 μl CHCl3, and 250 μl 0.1M HCl. Samples were vortexed and centrifuged at 3000 rpm for 10 minutes at 4° C. The amount of formed [^3H]-inositol phosphates was measured by liquid scintillation counting of 500 μl of the upper phase in a Packard Tri Carb 4000 Series […].
Data are expressed as mean±SD of three experiments performed in triplicate unless otherwise indicated. Statistical significance was evaluated using unpaired Students t tests. Data were modeled using Win-non Lin (Pharsight, Mountain View, Calif., United States of America) non-linear regression analysis for determination of EC50 (PLCβ3) and IC50 values.

The next series concerns the target T2, hPLCβ3 (Homo sapiens, UniProt Q01970).
T2 construct: confirmed alkylation at up to eight cysteine residues on the full length protein; gift: laboratory of Dr. T. K. Harden, University of North Carolina
T2 sequence (Q01970 1-1234): T1 sequence (Q01970 1-1234)
The series is described as follows: Mass spectrometry of intact hPLCβ3 and LC/MS/MS peptide sequencing (alkylation). As to conditions: FIG. 6A.

The test system of a further series is PLC in MDCK cells. The conditions noted are these: ATP-stimulated, concentration dependent; cited from earlier work.
The subject of the next series is PLC in Caco-2 cells. The conditions noted are these: ATP-stimulated, concentration dependent; cited from earlier work.
Another series deals with MDCK cell monolayers. As to conditions: concentration-dependent; cited from earlier work.
Another series concerns Caco-2 cell monolayers. As to conditions: concentration-dependent; cited from earlier work.

Broadly, the EC50 is the concentration giving half of the maximal effect. The low end stands for higher potency in that assay, the high end for lower potency in that assay. As usually defined, the IC50 is the midpoint of a concentration-inhibition curve.

Molecules are shown by their SMILES. Entries after “also recorded” stand apart in the source; their conditions may differ.

On to `CCN1C(=O)C=CC1=O` [NEM, N-ethylmaleimide], for which, on human PLCβ3 (hPLCβ3) (DDM mixed micelles), the “effect on activity of hPLCβ3 in DDM mixed micelles” value (from here on “effect on activity of hPLCβ3”) is reported as “do not; also recorded: inability to activate” and the “effect on U73122-induced activation of hPLCβ3” value is given as “inhibits”. The “alkylation of hPLCβ3” value at hPLCβ3 was “alkylates hPLCβ3 at multiple amino acid residues”.

Compound `COc1ccc2c(c1)CC[C@@H]1[C@@H]2CC[C@]2(C)[C@@H](NCCCCCCN3C(=O)C=CC3=O)CC[C@@H]12` [U73122] showed an EC50 on human PLCβ3 (hPLCβ3) of 14 ± 5 µM. Besides, on human PLCβ3 (hPLCβ3) (DDM mixed micelles), the “effect on activity of hPLCβ3” value is recorded as “increases the activity”. Moreover, the “time dependence of hPLCβ3 activation” value at human PLCβ3 (hPLCβ3) (FIG. 4) is on record as “time dependent”. In addition, the “inhibition of PLC activity in MDCK cells” value in the series with PLC in MDCK cells is “inhibits”. The “inhibition of PLC activity in Caco-2 cells” value in the series on PLC in Caco-2 cells is reported as “inhibits”. Also, the “effect on tight junction permeability, MDCK monolayers” value in the series with MDCK cell monolayers is “enhances”. Besides, in the series on Caco-2 cell monolayers, the “effect on tight junction permeability, Caco-2 monolayers” value was “enhances”.

On to `COc1ccc2c(c1)CC[C@@H]1[C@@H]2CC[C@]2(C)[C@@H](NCCCCCCN3C(=O)CCC3=O)CC[C@@H]12` [U73343], for which, on human PLCβ3 (hPLCβ3) (DDM mixed micelles), the “effect on activity of hPLCβ3” value is given as “do not”. In addition, the “inhibition of PLC activity in MDCK cells” value in the series with PLC in MDCK cells is reported as “does not”. Also, in the series on PLC in Caco-2 cells, the “inhibition of PLC activity in Caco-2 cells” value is on record as “does not”.

Turning to `N[C@@H](CS)C(=O)O` [cysteine], the “effect on U73122-induced activation of hPLCβ3” value at human PLCβ3 (hPLCβ3) (DDM mixed micelles) is “inhibit”.

In the case of `N[C@@H](CCC(=O)N[C@@H](CS)C(=O)NCC(=O)O)C(=O)O` [glutathione], the “effect on U73122-induced activation of hPLCβ3” value on human PLCβ3 (hPLCβ3) (DDM mixed micelles) was “inhibits”. On human PLCβ3 (hPLCβ3) (DDM mixed micelles, mean±SD, read-out: IC50 for inhibition of U73122-induced activation of hPLCβ3), the IC50 was determined as 38 ± 16 µM.
